# In PubChem BioAssay AID192 (DTP/NCI, 2004):
# Where “and” joins values, the source holds several entries; their conditions need not be identical. Equal entries are not always repeated. Inconclusive results and toxic doses are left out. Peptide text beside a SMILES is read from it.
# System: BDF1 mice, B16 melanoma ip, median survival T/C
# Test: NCI In Vivo Anticancer Drug Screen. Data for tumor model B16 Melanoma (intraperitoneal) in B6D2F1 (BDF1) mice
# Settings: endpoint: median survival time, higher = longer survival
# In short: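 Transplantable tumor model; survival or tumor size measured; reported as T/C, treated over vehicle control.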
# [1] = dose: 25.0 mg/kg/injection, schedule: Q04DX003 (ip), vehicle: Klucel (hydroxypropylcellulose) (HPC)
# [2] = dose: 50.0 mg/kg/injection, schedule: Q04DX003 (ip), vehicle: Klucel (hydroxypropylcellulose) (HPC)
# [3] = dose: 100.0 mg/kg/injection, schedule: Q04DX003 (ip), vehicle: Klucel (hydroxypropylcellulose) (HPC)
# [4] = dose: 25.0 mg/kg/injection, schedule: Q01DX009 (ip), vehicle: saline
# [5] = dose: 12.5 mg/kg/injection, schedule: Q01DX009 (ip), vehicle: saline with Tween-80
# [6] = dose: 25.0 mg/kg/injection, schedule: Q01DX009 (ip), vehicle: saline with Tween-80
# [7] = dose: 50.0 mg/kg/injection, schedule: Q01DX009 (ip), vehicle: saline with Tween-80
# [8] = dose: 12.5 mg/kg/injection, schedule: Q01DX009 (ip), vehicle: saline
# [9] = dose: 50.0 mg/kg/injection, schedule: Q04DX003 (ip), vehicle: saline with Tween-80
# [10] = dose: 100.0 mg/kg/injection, schedule: Q01DX009 (ip), vehicle: saline with Tween-80
# [11] = dose: 100.0 mg/kg/injection, schedule: Q01DX009 (ip), vehicle: Klucel (hydroxypropylcellulose) (HPC)
# [12] = dose: 200.0 mg/kg/injection, schedule: Q01DX009 (ip), vehicle: Klucel (hydroxypropylcellulose) (HPC)
# [13] = dose: 400.0 mg/kg/injection, schedule: Q01DX009 (ip), vehicle: Klucel (hydroxypropylcellulose) (HPC)
# [14] = dose: 1.56 mg/kg/injection, schedule: Q01DX009 (ip), vehicle: saline
# [15] = dose: 3.12 mg/kg/injection, schedule: Q01DX009 (ip), vehicle: saline
# [16] = dose: 6.25 mg/kg/injection, schedule: Q01DX009 (ip), vehicle: saline
smiles,measurement,setting,value
O=C/C(Br)=C\c1ccccc1,T/C,[1],96 % of control
same,T/C,[2],103 % of control
same,T/C,[3],96 % of control
CCOC(=O)N(Cc1ccccc1)C1CC1,T/C,"dose: 0.78 mg/kg/injection, schedule: Q04DX003 (ip), vehicle: saline",101 % of control
same,T/C,"dose: 1.56 mg/kg/injection, schedule: Q04DX003 (ip), vehicle: saline",93 % of control
same,T/C,"dose: 3.12 mg/kg/injection, schedule: Q04DX003 (ip), vehicle: saline",97 % of control
same,T/C,"dose: 6.25 mg/kg/injection, schedule: Q04DX003 (ip), vehicle: saline",101 % of control
same,T/C,"dose: 12.5 mg/kg/injection, schedule: Q04DX003 (ip), vehicle: saline",105 % of control
same,T/C,[4],105 % of control
same,T/C,"dose: 50.0 mg/kg/injection, schedule: Q01DX009 (ip), vehicle: saline",100 % of control
same,T/C,"dose: 100.0 mg/kg/injection, schedule: Q01DX009 (ip), vehicle: saline",94 % of control
same,T/C,"dose: 200.0 mg/kg/injection, schedule: Q01DX009 (ip), vehicle: saline",102 % of control
same,T/C,"dose: 400.0 mg/kg/injection, schedule: Q01DX009 (ip), vehicle: saline",107 % of control
CCCCOC(=O)c1ccc(NC(=O)Nc2ccccc2OC)cc1,T/C,[5],93 % of control
same,T/C,[6],100 % of control
same,T/C,[7],98 % of control
OC[CH2][Hg][Br],T/C,"dose: 0.37 mg/kg/injection, schedule: Q01DX009 (ip), vehicle: saline",97 % of control
same,T/C,"dose: 0.75 mg/kg/injection, schedule: Q01DX009 (ip), vehicle: saline",94 % of control
same,T/C,"dose: 1.5 mg/kg/injection, schedule: Q01DX009 (ip), vehicle: saline",94 % of control
same,T/C,"dose: 3.0 mg/kg/injection, schedule: Q01DX009 (ip), vehicle: saline",93 % of control
COc1ccc(NC(=O)Nc2cc(Cl)ccc2OC)cc1,T/C,"dose: 25.0 mg/kg/injection, schedule: Q01DX009 (ip), vehicle: Klucel (hydroxypropylcellulose) (HPC)",92 % of control
same,T/C,"dose: 50.0 mg/kg/injection, schedule: Q01DX009 (ip), vehicle: Klucel (hydroxypropylcellulose) (HPC)",92 % of control
[Cl][Pt+2][Cl].[NH-]c1ccc(C(=O)c2ccccc2)cc1[NH-],T/C,"dose: 20.0 mg/kg/injection, schedule: Q01DX009 (ip), vehicle: saline with Tween-80",108 % of control
same,T/C,"dose: 40.0 mg/kg/injection, schedule: Q01DX009 (ip), vehicle: saline with Tween-80",113 % of control
same,T/C,"dose: 80.0 mg/kg/injection, schedule: Q01DX009 (ip), vehicle: saline with Tween-80",118 % of control
same,T/C,"dose: 160.0 mg/kg/injection, schedule: Q01DX009 (ip), vehicle: saline with Tween-80",114 % of control
same,T/C,"dose: 320.0 mg/kg/injection, schedule: Q01DX009 (ip), vehicle: saline with Tween-80",113 % of control
CCNCCCCCCNCC,T/C,[8],98 % of control
same,T/C,[4],90 % of control
CC12CCC(O)CC1CCC1C2CCC2(C)C(c3ccc(=O)oc3)CC3OC312 (stereo not given),T/C,"dose: 0.31 mg/kg/injection, schedule: Q01DX009 (ip), vehicle: saline with Tween-80",102 % of control
same,T/C,"dose: 0.62 mg/kg/injection, schedule: Q01DX009 (ip), vehicle: saline with Tween-80",94 % of control
same,T/C,"dose: 1.25 mg/kg/injection, schedule: Q01DX009 (ip), vehicle: saline with Tween-80",95 % of control
same,T/C,"dose: 2.5 mg/kg/injection, schedule: Q01DX009 (ip), vehicle: saline with Tween-80",98 % of control
same,T/C,"dose: 5.0 mg/kg/injection, schedule: Q01DX009 (ip), vehicle: saline with Tween-80",100 % of control
same,T/C,"dose: 10.0 mg/kg/injection, schedule: Q01DX009 (ip), vehicle: saline with Tween-80",95 % of control
CCOC(=O)C(=CN(C(C)C)C(C)C)C(=O)OCC,T/C,[7],117 % of control
same,T/C,[9],108 % of control
same,T/C,[10],111 % of control
same,T/C,"dose: 100.0 mg/kg/injection, schedule: Q04DX003 (ip), vehicle: saline with Tween-80",108 % of control
same,T/C,"dose: 200.0 mg/kg/injection, schedule: Q04DX003 (ip), vehicle: saline with Tween-80",108 % of control
COc1cc2c(cc1O)C(=O)CCCC2,T/C,[10],107 % of control
same,T/C,"dose: 200.0 mg/kg/injection, schedule: Q01DX009 (ip), vehicle: saline with Tween-80",101 % of control
same,T/C,"dose: 400.0 mg/kg/injection, schedule: Q01DX009 (ip), vehicle: saline with Tween-80",89 % of control and 101 % of control
C=C(C)C1CCC2(C=O)CCC3(C)C(CCC4C5(C)CCC(O)C(C)(C)C5CCC43C)C12 (stereo not given),T/C,"dose: 18.75 mg/kg/injection, schedule: Q01DX009 (ip), vehicle: Klucel (hydroxypropylcellulose) (HPC)",94 % of control
same,T/C,"dose: 75.0 mg/kg/injection, schedule: Q01DX009 (ip), vehicle: Klucel (hydroxypropylcellulose) (HPC)",97 % of control
c1ccc2[nH]c(/N=N/c3nc4ccccc4[nH]3)nc2c1,T/C,[11],102 % of control
same,T/C,[12],102 % of control
same,T/C,[13],91 % of control
CCCCCCCCCCCCCCCC[N+]1(C)CCN(SN2CC[N+](C)(CCCCCCCCCCCCCCCC)CC2)CC1,T/C,[14],93 % of control
same,T/C,[15],89 % of control
same,T/C,[16],87 % of control and 89 % of control
CCC[CH2][Sn]([CH2]CCC)([CH2]CCC)[O]C(=O)CC[S][Sn]([CH2]CCC)([CH2]CCC)[CH2]CCC,T/C,"dose: 1.0 mg/kg/injection, schedule: Q01DX009 (ip), vehicle: saline with Tween-80",92 % of control
same,T/C,"dose: 2.0 mg/kg/injection, schedule: Q01DX009 (ip), vehicle: saline with Tween-80",95 % of control
Cc1ccc(C(=O)NCCCOc2ccc(N3C(N)=NC(N)=NC3(C)C)cc2Cl)cc1S(=O)(=O)F,T/C,[8],96 % of control
same,T/C,[4],91 % of control
O=C(O)c1c(Cl)cccc1Cl,T/C,[5],105 % of control
same,T/C,[6],95 % of control
same,T/C,"dose: 25.0 mg/kg/injection, schedule: Q04DX003 (ip), vehicle: saline with Tween-80",105 % of control
same,T/C,[9],97 % of control
O=C1N[C@@H]([C@H]2CC[C@H](Cl)CN2)C(=O)N[C@H]1[C@H]1CC[C@H](Cl)CN1,T/C,"dose: 0.05 mg/kg/injection, schedule: Q01DX009 (ip), vehicle: saline",107 % of control
same,T/C,"dose: 0.1 mg/kg/injection, schedule: Q01DX009 (ip), vehicle: saline",116 % of control
same,T/C,"dose: 0.5 mg/kg/injection, schedule: Q04DX003 (ip), vehicle: saline",103 % of control
same,T/C,"dose: 1.0 mg/kg/injection, schedule: Q01DX001 (ip), vehicle: saline",115 % of control
same,T/C,"dose: 1.0 mg/kg/injection, schedule: Q04DX003 (ip), vehicle: saline",119 % of control
same,T/C,"dose: 1.25 mg/kg/injection, schedule: Q01DX001 (ip), vehicle: saline",119 % of control
same,T/C,"dose: 2.0 mg/kg/injection, schedule: Q01DX001 (ip), vehicle: saline",120 % of control
same,T/C,"dose: 2.0 mg/kg/injection, schedule: Q04DX003 (ip), vehicle: saline",124 % of control
same,T/C,"dose: 2.5 mg/kg/injection, schedule: Q01DX001 (ip), vehicle: saline",114 % of control
same,T/C,"dose: 10.0 mg/kg/injection, schedule: Q01DX009 (ip), vehicle: alkali diluted with saline",30 % of control
same,T/C,"dose: 16.0 mg/kg/injection, schedule: Q01DX001 (ip), vehicle: saline",154 % of control
same,T/C,"dose: 20.0 mg/kg/injection, schedule: Q01DX009 (ip), vehicle: alkali diluted with saline",30 % of control
same,T/C,"dose: 40.0 mg/kg/injection, schedule: Q01DX009 (ip), vehicle: alkali diluted with saline",27 % of control
same,T/C,"dose: 80.0 mg/kg/injection, schedule: Q01DX009 (ip), vehicle: alkali diluted with saline",16 % of control
c1ccc2c(c1)OCCOCCOc1ccccc1OCCOCCO2,T/C,"dose: 12.5 mg/kg/injection, schedule: Q04DX003 (ip), vehicle: Klucel (hydroxypropylcellulose) (HPC)",93 % of control
same,T/C,[1],88 % of control
same,T/C,[2],86 % of control
O=C(O)CC(NC(=O)OCc1ccccc1)C(=O)O (stereo not given),T/C,[14],98 % of control
same,T/C,[15],104 % of control
same,T/C,[16],92 % of control
CC(C)CC(N)C(=O)NCC(=O)NC(Cc1ccccc1)C(=O)O (stereo not drawn) (H-Leu-Gly-Phe-OH; configuration not given here),T/C,[11],93 % of control
same,T/C,[3],95 % of control
same,T/C,[12],91 % of control
same,T/C,"dose: 200.0 mg/kg/injection, schedule: Q04DX003 (ip), vehicle: Klucel (hydroxypropylcellulose) (HPC)",97 % of control
same,T/C,[13],89 % of control
same,T/C,"dose: 400.0 mg/kg/injection, schedule: Q04DX003 (ip), vehicle: Klucel (hydroxypropylcellulose) (HPC)",102 % of control
